Results reported in patent US11370825B2, “Polypeptides, cells, and methods involving engineered CD16” (Regents of the University of Minnesota, priority 2014, dated 2022).

Tests used:
[1] = system: ADAM17; assay: Anti-ADAM17 mAb staining of NK92 cells expressing CD16a or CD16a/S197P, flow cytometry; format: cell-based, human; conditions: NK92 cells expressing CD16a compared with CD16a/S197P; multiple anti-ADAM17 mAbs
Experimental: FIG. 4. Effects of the engineered S197P mutation on CD16a shedding in NK cells. NK92 cells transduced with empty vector (vector only), CD16a, or CD16a/S197P were treated without (Unstim.) or with PMA (100 ng/ml) for 30 minutes at 37° C. (A), with IL-12 and IL-18 (100 ng/ml and 400 ng/ml, respectively) for 24 hours at 37° C. (B), or with Raji cells and rituximab for 60 minutes at 37° C. (C). Cell surface levels of CD16a were determined by flow cytometry. Isotype-matched negative control antibody staining is indicated by a dotted line. […] Soluble CD16a levels were determined by ELISA. […] For all histogram plots, the x-axis=Log 10 fluorescence, the y-axis=cell number, and the data are representative of at least 3 independent experiments.
(§1) For cell staining, nonspecific antibody binding sites were blocked and cells were stained with the indicated antibodies and examined by flow cytometry, as previously described (Wang et al., 2013, Biochim Biophys Acta. 1833:680-685; Romee et al., 2013, Blood 121:3599-3608). […] Human CD16 was detected by the mAbs 3G8 (BioLegend, Inc., San Diego, Calif.) and DJ130c (Santa Cruz Biotech, Santa Cruz, Calif.). CD107a was detected by the mAb H4A3 (Biolegend, Inc., San Diego, Calif.). ADAM17 was detected by the mAbs M220 (Doedens et al., 2000, J Biol Chem. 275:14598-14607), 111633, and 111623 (R&D Systems, Inc., Minneapolis, Minn.). […]

[2] = system: iPSC-derived NK cells; assay: Cell surface CD16a on iPSC-derived NK cells stimulated with K562 cells, flow cytometry; format: cell-based, human; conditions: iPSC-derived NK cells with K562 target cells (2:1 ratio), four hours at 37° C.
[3] = system: NK92 cells; assay: NK92 cell activation: CD107a up-regulation on incubation with Raji cells with or without rituximab, flow cytometry; format: cell-based, human
Experimental: (§2) FIG. 5. Effects of the engineered S197P mutation on CD16a function. (A) NK92 cells expressing CD16a or CD16a/S197P at equivalent levels (left panel) were treated with monomeric human IgG (0-20 μg/ml). As controls, cells were also treated with monomeric human IgA (20 μg/ml), and NK92 parent cells were treated with IgG (20 μg/ml) (bar). Antibody binding was determined by flow cytometry, as described in Materials and Methods. […] Statistical significance is indicated as *P<0.05 versus IgG (0 μg/ml), IgA, or NK92 parent cells+IgG. (B) Mock transduced NK92 cells or NK92 cells expressing CD16a or CD16a/S197P were incubated in the absence (Unstim.) or presence of Raji cells treated with or without anti-CD20 rituximab for the indicated time points at 37° C. NK92 cell activation was assessed by the up-regulation in CD107a staining by flow cytometry. For the histogram plots, the x-axis=Log 10 fluorescence and the y-axis=cell number. Data are representative of at least 3 independent experiments.
HEK293 and NK92 cells in RPMI 1640 media (Mediatech, Inc., Manassas, Va.) were activated with 15 ng/ml and 100 ng/ml, respectively, PMA for 30 minutes at 37° C. NK92 cells were activated with IL-12 (PeproTech Inc, Rocky Hill, N.J.) and IL-18 (R&D Systems, Inc., Minneapolis, Minn.) at 100 ng/ml and 400 ng/ml, respectively, for the indicated time points. NK92 cell activation through CD16a was mediated by their incubation with the CD20-positive Burkitt's lymphoma cell line Raji (ATCC, grown according to the depository's instructions) (1:1 ratio) treated with the anti-CD20 mAb rituximab (1 μg/ml) (Genentech, Inc., South San Francisco, Calif.), as described previously (Romee et al., 2013, Blood 121:3599-3608). Excess rituximab was removed by washing the Raji cells. In some experiments, NK92 cells were pre-incubated for 30 minutes with the selective ADAM17 inhibitor BMS566394 (5 μM) (Bristol-Myers Squibb Company, Princeton, N.J.). […]
as §1, with “Minn.). Human L-selectin was detected by the mAb LAM1-116 (Ancell Corp., Stillwater, Minn.).” for “Minn.).”

[4] = system: monomeric human IgG; assay: Antibody binding assay: monomeric human IgG and IgA binding to NK92 cells expressing CD16a or CD16a/S197P; conditions: NK92 cells expressing the receptor; IgA 20 μg/ml
Experimental: as §2
Cell binding to monomeric human IgG and IgA (Sigma-Aldrich, St. Louis, Mo.) was performed as previously described with some modifications (Dong et al., 2014, Arthritis Rheumatol. 66:1291-1299). […] The cells were washed and then immediately analyzed by flow cytometry.

[5] = NK92 cells incubated with Raji cells alone
[6] = NK92 cells incubated with Raji cells treated with rituximab

| Substance | ADAM17 cell surface levels [1] | cell surface expression of CD16a after stimulation [2] | up-regulation of CD107a [3, 5] | up-regulation of CD107a [3, 6] | monomeric IgA binding (control) [4] |
| --- | --- | --- | --- | --- | --- |
| CD16a/S197P: Human CD16a (FcγRIIIa, SEQ ID NO:1) with serine-197 substituted by proline in the membrane proximal cleavage region; expressed recombinantly in cells | identical cell surface levels | remained stable | marginally up-regulated | considerable up-regulation | essentially background levels |
| CD16a: Wild-type human IgG Fc receptor CD16a (FcγRIIIa), valine allelic variant, recombinant comparator [reference compound] | identical cell surface levels | marked down-regulation | marginally up-regulated | considerable up-regulation | essentially background levels |
